Measurements reported in US20260035384A1, “COMPOUND CONTAINING CYCLOHEXYL” (CHIA TAI TIANQING PHARMACEUTICAL GROUP CO., LTD., priority 2022, published 2026).
Residue numbers refer to the chain shown, from its start. Where two headings read alike, the source gives them in different places.

How the values were obtained:
AR in VCaP cells = molecular target: T1, AR in VCaP cells (Homo sapiens, UniProt P10275); assay: Assay on degradation activity for AR in VCaP cells (HTRF human androgen receptor detection kit); assay type: cell-based; details: 24 h incubation
T1 construct: Assay on Degradation Activity for AR in VCaP Cells; endogenous in cells; host or cells: VCaP cells
T1 sequence (P10275 1-920): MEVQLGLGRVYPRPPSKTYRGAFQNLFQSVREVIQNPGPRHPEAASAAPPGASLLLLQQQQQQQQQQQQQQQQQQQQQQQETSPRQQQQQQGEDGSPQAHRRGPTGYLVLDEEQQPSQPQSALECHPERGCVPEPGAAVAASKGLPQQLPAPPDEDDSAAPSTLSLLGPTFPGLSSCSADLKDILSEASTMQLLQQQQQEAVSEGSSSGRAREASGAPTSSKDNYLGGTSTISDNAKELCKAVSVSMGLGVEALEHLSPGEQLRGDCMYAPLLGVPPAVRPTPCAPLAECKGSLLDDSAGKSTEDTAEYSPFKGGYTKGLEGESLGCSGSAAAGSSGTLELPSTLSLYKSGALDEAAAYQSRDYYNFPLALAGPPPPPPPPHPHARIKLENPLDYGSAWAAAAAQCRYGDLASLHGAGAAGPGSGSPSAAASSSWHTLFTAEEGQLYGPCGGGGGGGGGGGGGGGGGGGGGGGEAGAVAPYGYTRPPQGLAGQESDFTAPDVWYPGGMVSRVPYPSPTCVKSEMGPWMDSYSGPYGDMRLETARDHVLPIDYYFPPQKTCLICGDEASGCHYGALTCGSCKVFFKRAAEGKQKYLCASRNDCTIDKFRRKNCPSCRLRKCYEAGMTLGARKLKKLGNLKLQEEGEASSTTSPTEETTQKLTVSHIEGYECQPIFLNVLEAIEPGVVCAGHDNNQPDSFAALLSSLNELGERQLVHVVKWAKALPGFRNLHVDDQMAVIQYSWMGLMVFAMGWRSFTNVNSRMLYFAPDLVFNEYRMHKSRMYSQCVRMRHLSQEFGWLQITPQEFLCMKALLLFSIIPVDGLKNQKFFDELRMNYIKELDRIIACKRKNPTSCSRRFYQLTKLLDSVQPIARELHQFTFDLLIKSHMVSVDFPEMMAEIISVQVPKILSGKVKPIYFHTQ
Method: The detection was carried out using the HTRF HUMAN ANDROGEN RECEPTOR DETECTION KIT (cisbio, 64ANDRPEG), 4× Supplemented Lysis buffer was prepared using the Blocking reagent stock solution (100×) and Lysis buffer stock solution (4×), and 1× Supplemented Lysis buffer was prepared using the 4× Supplemented Lysis buffer and ddH2O. Premixed antibody solutions were prepared using Detection buffer, Androgen Receptor Eu Cryptate antibody, and Androgen Receptor d2 antibody.
VCaP cells in a good growth state were taken, washed with PBS, digested with pancreatin, and added with 2% CSS—FBS phenol red-free DMEM complete medium to terminate the digestion. The cells were collected by using a centrifuge tube, adjusted to a cell density of 1×10^6 cells/mL, and seeded in a 96-well plate (100 µL/well). The cells were incubated overnight in a cell incubator. Compounds were added using a nanoliter pipettor such that the final concentrations of the compounds were 1000 nM-0.977 nM. Two duplicate wells were set for each concentration, and meanwhile, a control was set. After another 24 h of incubation in the cell incubator, the medium was pipetted out, the 1× Supplemented Lysis buffer was added at 40 μL/well to lyse the cells. After the cells were oscillated for 40 min at room temperature, 16 μL of the cell lysate was added to a 384-well plate, the Premixed antibody solutions were added at 4 μL/well, and the mixture was left to stand at 25° C. for 2 h. Fluorescence values were detected at 665 nm/620 nm using an Envision microplate reader, the four-parameter analysis was performed, the dose-response curves were fit, and DC50 (the concentration of the drug when the degradation rate reaches 50%) and Dmax (the maximum degradation rate) were calculated.

LNCaP cells = assay: Assay on inhibitory activity for LNCaP cell proliferation (CCK-8); assay type: cell-based; details: 168 h incubation
Procedure, shortened: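 Cells seeded at 1×10^5 cells/mL in phenol red-free 1640 with 2% CSS-FBS, treated at final 10000 nM-0.61 nM in duplicate. After 168 h incubation, viability read with CCK-8.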

VCaP cells = assay: Assay on inhibitory activity for VCaP cell proliferation (CCK-8); assay type: cell-based; details: 168 h incubation
Procedure, shortened: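 VCaP cells seeded at 1×10^5 cells/mL in phenol red-free DMEM with 5% charcoal-stripped FBS, treated in duplicate at 10000–0.61 nM final. After 168 h incubation, viability was read with CCK-8.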

[1] = In vitro stability in liver microsome; assay type: in vitro ADME; details: human liver microsome 0.5 mg/mL, NADPH, 37° C.
Method: Liver microsome incubation samples (species: human, monkey, rat, and mouse) were prepared by mixing a PBS buffer (pH=7.4), a liver microsome solution (0.5 mg/mL), a test compound, and an NADPH+MgCl2 solution and incubated at 37° C. and 300 rpm for 1 h. Zero-hour samples were prepared by mixing a PBS buffer (pH=7.4), a liver microsome solution (0.5 mg/mL), and a test compound. An acetonitrile solution containing an internal standard was added to the samples, and supernatants were prepared by protein precipitation, diluted, and then assayed by LC/MS/MS.

Mouse pharmacokinetics = assay type: in vivo, ICR mice
Method: ICR mice weighing 18-22 g were randomized into groups of 9 after 3-5 days of acclimatization, and then intragastrically given the test compound solution at a dose of 10 mg/kg and intravenously injected with the test compound solution at a dose of 1 mg/kg.
Blood sampling time points for the intragastrical administration group were 15 min, 0.5 h, 1 h, 2 h, 3 h, 4 h, 6 h, 8 h, 10 h, and 24 h, and blood sampling time points for the intravenous injection administration group were […], 15 min, 0.5 h, 1 h, 2 h, 4 h, 6 h, 8 h, 10 h, and 24 h; blood was collected from the orbit to prepare plasma samples to be tested. 30 μL of each of the plasma samples to be tested and a standard curve sample were taken, and an acetonitrile solution containing an internal standard was added. Supernatants were obtained by protein precipitation, diluted, and then assayed by LC/MS/MS. Pharmacokinetic parameters were fitted using a non-compartmental model (see Table 6).

AR in LNCaP cells = molecular target: T2, AR in LNCaP cells (Homo sapiens, UniProt P10275, T878A); assay: Assay on degradation activity for AR in LNCaP cells (HTRF human androgen receptor detection kit); assay type: cell-based; details: 24 h incubation; for DC50: HTRF; for Dmax: maximum degradation rate
T2 construct: Assay on Degradation Activity for AR in LNCaP Cells; endogenous in cells; host or cells: LNCaP cells
T2 sequence (P10275 1-920 T878A): T1 sequence (P10275 1-920) with T878A
Procedure, shortened: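 LNCaP cells seeded in 2% CSS-FBS phenol red-free 1640 medium overnight, then treated in duplicate with 500 nM–0.488 nM compound for 24 h. AR in lysates quantified by HTRF (Eu cryptate/d2 antibodies, 2 h, 25 °C, 665/620 nm); DC50 and Dmax from four-parameter fits.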

[2] = ICR, mouse, plasma, iv, 1 mg/kg, Mouse i.v. 1 mpk
[3] = ICR, mouse, plasma, iv, 1 mg/kg, Mouse i.v. 1 mpk, read-out: AUC
[4] = ICR, mouse, plasma, po, 10 mg/kg, Mouse i.g. 10 mpk
[5] = ICR, mouse, plasma, po, 10 mg/kg, Mouse i.g. 10 mpk vs i.v. 1 mpk
[6] = ICR, mouse, plasma, po, 10 mg/kg, Mouse i.g. 10 mpk, read-out: AUC
[7] = ICR, mouse, plasma, po, 10 mg/kg, Mouse i.g. 10 mpk, read-out: Cmax

| SMILES | DC50 (AR in VCaP cells) [nM] | IC50 (LNCaP cells; Homo sapiens) [nM] | IC50 (VCaP cells; Homo sapiens, VCaP, 168 h) [nM] | Human liver microsome Residuals at 60 min (%) [1] [%] | clearance (Mouse pharmacokinetics; [2]) [mL/min/kg] | half-life (Mouse pharmacokinetics; [2]) [h] | AUC (Mouse pharmacokinetics; [3]) [ng·h/mL] | half-life (Mouse pharmacokinetics; [4]) [h] | bioavailability (Mouse pharmacokinetics; [5]) [%] | AUC (Mouse pharmacokinetics; [6]) [ng·h/mL] | Cmax (Mouse pharmacokinetics; [7]) [ng/mL] | DC50 (AR in LNCaP cells) [nM] | Dmax (AR in LNCaP cells) [%] | IC50 (VCaP cells; Homo sapiens) [nM] | further results |
| --- | --- | --- | --- | --- | --- | --- | --- | --- | --- | --- | --- | --- | --- | --- | --- |
| N#Cc1ccc(O[C@H]2CC[C@H](NC(=O)c3ccc(N4CCC5(CC4)CC(CN4Cc6ccc7c(C8CCC(=O)NC8=O)noc7c6C4)C5)nn3)CC2)cc1Cl.O=C(O)/C=C\C(=O)O (stereo partly shown) [Compound 34] | – | < 1000 | – | >85 | – | – | – | – | – | – | – | – | > 80 | < 100 | – |
| N#Cc1ccc(O[C@H]2CC[C@H](NC(=O)c3ccc(C4CCN(CC5CN(c6cc7onc(C8CCC(=O)NC8=O)c7c7ccccc67)C5)CC4)nn3)CC2)cc1Cl (stereo partly shown) [Compound 47] | – | – | – | >85 | – | – | – | – | – | – | – | ≤ 20 | > 80 | < 10 | – |
| N#Cc1ccc(O[C@H]2CC[C@H](NC(=O)c3ccc(N4CCC(N5CC(CN6Cc7ccc8c(C9CCC(=O)NC9=O)noc8c7C6)C5)CC4)nn3)CC2)cc1Cl (stereo partly shown) [Compound 90] | ≤ 1 | – | – | >85 | – | – | – | – | – | – | – | ≤ 20 | > 80 | < 10 | – |
| N#Cc1ccc(O[C@H]2CC[C@H](NC(=O)c3ccc(N4CCC(N5CC(N6Cc7ccc8c(C9CCC(=O)NC9=O)noc8c7C6)C5)CC4)nn3)CC2)cc1Cl (stereo partly shown) [Compound 94] | ≤ 1 | < 1000 | – | >85 | – | – | – | – | – | – | – | – | – | < 100 | – |

Further lines, with some results ahead:

| DC50 (AR in VCaP cells) [nM] | IC50 (LNCaP cells; Homo sapiens) [nM] | IC50 (VCaP cells; Homo sapiens, VCaP, 168 h) [nM] | Human liver microsome Residuals at 60 min (%) [1] [%] | clearance (Mouse pharmacokinetics; [2]) [mL/min/kg] | half-life (Mouse pharmacokinetics; [2]) [h] | AUC (Mouse pharmacokinetics; [3]) [ng·h/mL] | half-life (Mouse pharmacokinetics; [4]) [h] | bioavailability (Mouse pharmacokinetics; [5]) [%] | AUC (Mouse pharmacokinetics; [6]) [ng·h/mL] | Cmax (Mouse pharmacokinetics; [7]) [ng/mL] | SMILES | DC50 (AR in LNCaP cells) [nM] | Dmax (AR in LNCaP cells) [%] | IC50 (VCaP cells; Homo sapiens) [nM] | further results |
| --- | --- | --- | --- | --- | --- | --- | --- | --- | --- | --- | --- | --- | --- | --- | --- |
| ≤ 1 | < 1000 | < 1000 | >85 | 4.72 | 7.28 | 3160 | 6.82 | 46 | 14600 | 1160 | N#Cc1ccc(O[C@H]2CC[C@H](NC(=O)c3ccc(N4CCC(CN5Cc6ccc7c(C8CCC(=O)NC8=O)noc7c6C5)CC4)nn3)CC2)cc1Cl (stereo partly shown) [Compound 17] | – | – | – | – |
| – | < 1000 | – | >85 | 2.7 | – | 5930 | 5.52 | 31 | 18400 | 1200 | N#Cc1ccc(O[C@H]2CC[C@H](NC(=O)c3ccc(N4CCC(CN5CCc6ccc7c(C8CCC(=O)NC8=O)noc7c6C5)CC4)nn3)CC2)cc1Cl (stereo partly shown) [Compound 18] | ≤ 20 | > 80 | – | – |
| ≤ 1 | < 1000 | < 100 | >85 | 2.78 | 7.58 | 5350 | – | 24.8 | 13200 | 886 | N#Cc1ccc(O[C@H]2CC[C@H](NC(=O)c3ccc(N4CCN(CC5Cc6ccc7c(C8CCC(=O)NC8=O)noc7c6C5)CC4)nn3)CC2)cc1Cl (stereo partly shown) [Compound 26] | – | – | – | t1/2 (Mouse pharmacokinetics; Mouse i.g. 10 mpk): 11 h |
| ≤ 1 | – | – | >85 | – | – | – | – | – | – | – | N#Cc1ccc(O[C@H]2CC[C@H](NC(=O)c3ccc(N4CCN(CC5Cc6ccc7c(C8CCC(=O)NC8=O)noc7c6C5)CC4)nn3)CC2)cc1Cl (stereo partly shown) [Compound 27] | – | – | – | IC50 (LNCaP cells): < 1000 nM; IC50 (VCaP cells): < 100 nM; AUC (Mouse pharmacokinetics; Mouse i.g. 10 mpk): 20072 ng·h/mL; Cmax (Mouse pharmacokinetics; Mouse i.g. 10 mpk): 1503 ng/mL; t1/2 (Mouse pharmacokinetics; Mouse i.g. 10 mpk): 5.47 h; F(%) (Mouse pharmacokinetics; Mouse i.g. 10 mpk vs i.v. 1 mpk): 35.85%; AUC (Mouse pharmacokinetics; Mouse i.v. 1 mpk, 1 mg/kg): 5599 ng·h/mL; Cl (Mouse pharmacokinetics; Mouse i.v. 1 mpk, 1 mg/kg): 2.63 mL/min/kg; t1/2 (Mouse pharmacokinetics; Mouse i.v. 1 mpk, 1 mg/kg): 7.6 h |
| – | < 1000 | < 100 | >85 | 5.8 | 11.5 | 2720 | 8.6 | 39 | 10600 | 559 | N#Cc1ccc(O[C@H]2CC[C@H](NC(=O)c3cnc(N4CCC(CN5Cc6ccc7c(C8CCC(=O)NC8=O)noc7c6C5)CC4)nc3)CC2)cc1Cl (stereo partly shown) [Compound 119] | – | – | – | – |
